Data on 30 molecules can be found in ChEMBL document CHEMBL1129312, “Aminodiol HIV protease inhibitors. Synthesis and structure-activity relationships of P1/P1' compounds: correlation between lipophilicity and cytotoxicity” (J Med Chem, 1996).

The term IC50 denotes the midpoint of a concentration-inhibition curve. Low values mean greater potency, high ones weaker potency. Usually CC50 stands for the concentration that lowers cell viability or growth by half. The term half-life denotes how long it takes for the measured level to halve. Higher therefore signals slow decline.

Data set [1] concerns the target Human immunodeficiency virus type 1 protease (Human immunodeficiency virus 1, UniProt Q72874). Kind of data set: Inhibitory activity against HIV-1 protease cleavage of [V-S-Q-N-(beta-naphthylalanine)-P-I-V).
Data set [2] can be described thus: Lipophilicity index (RP-HPLC pH 7). It is filed as physicochemical. As to conditions: buffer.
Data set [3] concerns H9. Kind of data set: Inhibitory activity against human T cell lymphoma (H9) growth by 50 %. It is filed as functional.
Data set [4] has as its system CEM-SS. Nature of the data set: Inhibitory activity against HIV-1 virus replication as determined by an XTT endpoint by 50%. Type of data set: functional. The following applies: Homo sapiens, read-out: ED50 (the source's name). (In general: Formazan colour is commonly taken as a measure of viable cells.)
The nature of data set [5]: In vitro therapeutic index was evaluated. It is filed as functional.
A short description of data set [6]: Plasma elimination half life was determined for the compound. Type of data set: ADME, cell-free.
Data set [7] deals with CEM-SS. Kind of data set: Inhibitory activity against HIV-2 virus replication as determined by an XTT endpoint by 50%. It is filed as functional. As to conditions: Homo sapiens, read-out: ED50 (the source's name).

In data set [1], `CC(C)(C)OC(=O)N[C@@H](Cc1ccccc1)[C@H](O)CNC[C@@H](O)[C@H](Cc1ccc(OCCN2CCOC2=O)cc1)NC(=O)OC(C)(C)C` gave an IC50 of 0.04 µM. In data set [2], the “Log k'” value is recorded as 0.82. The CC50 in data set [3] was 52 µM. Further, the EC50 in data set [4] was found to be 0.08 µM.
Taken in the same sequence, the figures for `CN1CCN(CCOc2ccc(C[C@H](NC(=O)OC(C)(C)C)[C@H](O)CNC[C@@H](O)[C@H](Cc3ccccc3)NC(=O)OC(C)(C)C)cc2)C1=O` were 0.06 µM, 1.04, 50 µM and 0.05 µM.
Turning to `CC(C)(C)OC(=O)N[C@@H](Cc1ccccc1)[C@H](O)CNC[C@@H](O)[C@H](Cc1ccc(OCCN2CCOCC2)cc1)NC(=O)OC(C)(C)C`, in data set [1], the IC50 was 0.1 µM. The “Log k'” value in data set [2] stood at 1.18. In data set [3], this molecule came in with a CC50 of 25 µM. For the same molecule, the EC50 in data set [4] amounted to 0.07 µM.
In data set [1], `CC(C)(C)OC(=O)N[C@@H](Cc1ccccc1)[C@H](O)CNC[C@@H](O)[C@H](Cc1cccc(O)c1)NC(=O)OC(C)(C)C` had an IC50 of 0.2 µM. Besides, the “Log k'” value in data set [2] is listed as 0.92. This molecule also displayed a CC50 in data set [3] of 17 µM. Besides, in data set [4], the EC50 amounted to 0.15 µM.
With `CN(C)C(=O)OCCOc1ccc(C[C@H](NC(=O)OC(C)(C)C)[C@H](O)CNC[C@@H](O)[C@H](Cc2ccccc2)NC(=O)OC(C)(C)C)cc1`, in data set [1], the IC50 came to 0.04 µM. Moreover, the “Log k'” value in data set [2] turned out to be 1.24. The molecule also gave a CC50 in data set [3] of 16 µM. Moreover, the EC50 in data set [4] stood at 0.12 µM.
In the case of `CC(C)(C)OC(=O)N[C@@H](Cc1ccccc1)[C@H](O)CNC[C@@H](O)[C@H](Cc1ccc(OCC(=O)N2CCCCC2)cc1)NC(=O)OC(C)(C)C`, in data set [1], the IC50 turned out to be 0.09 µM. Further, in data set [2], the “Log k'” value is 1.33. The molecule also had a CC50 in data set [3] of 17 µM. In addition, the EC50 in data set [4] stood at 0.07 µM.
Taken in the same sequence, the figures for `CC(C)(C)OC(=O)N[C@@H](Cc1ccccc1)[C@H](O)CNC[C@@H](O)[C@H](Cc1ccc(OCCc2ccccn2)cc1)NC(=O)OC(C)(C)C` were 0.05 µM, 1.39, 5 µM and 0.04 µM.
In the case of `CC(O)COc1ccc(C[C@H](NC(=O)OC(C)(C)C)[C@H](O)CNC[C@@H](O)[C@H](Cc2ccccc2)NC(=O)OC(C)(C)C)cc1` (stereo partly specified), in data set [1], half-maximal inhibition (IC50) required 0.049 µM. In data set [2], the “Log k'” value is listed as 1.02. For the same molecule, it took 22 µM to reach half-maximal cytotoxicity in data set [3] (CC50). For the same molecule, in data set [4], the EC50 was 0.07 µM.
Taken in the same sequence, the figures for `CC(C)(C)OC(=O)N[C@@H](Cc1ccccc1)[C@H](O)CNC[C@@H](O)[C@H](Cc1ccc(COC(=O)N2CCOCC2)cc1)NC(=O)OC(C)(C)C` were 0.03 µM, 1.23, 27 µM and 0.04 µM.
As for `CC(C)(C)OC(=O)N[C@@H](Cc1ccccc1)[C@H](O)CNC[C@@H](O)[C@H](Cc1ccc(OCCCN2CCOCC2)cc1)NC(=O)OC(C)(C)C`, inhibition in data set [1] was half-maximal at 0.086 µM (IC50). Also, the “Log k'” value in data set [2] is listed as 1.28. Moreover, the CC50 in data set [3] came out at 17 µM. In addition, the EC50 in data set [4] was 0.04 µM.
Taken in the same sequence, the figures for `CC(C)(C)OC(=O)N[C@@H](Cc1ccccc1)[C@H](O)CNC[C@@H](O)[C@H](Cc1cccc(OCc2ccccc2)c1)NC(=O)OC(C)(C)C` were 0.14 µM, 2.04, 1.9 µM and 0.09 µM.
Consider `CC(C)(C)OC(=O)N[C@@H](Cc1ccccc1)[C@H](O)CNC[C@@H](O)[C@H](Cc1ccc(OCCn2ccnc2)cc1)NC(=O)OC(C)(C)C`, for which the 50% inhibitory concentration (IC50) in data set [1] came out at 0.09 µM. Moreover, the “Log k'” value in data set [2] is on record as 0.96. Also, half-maximal cytotoxicity in data set [3] (CC50) was put at 22 µM. Besides, the EC50 in data set [4] worked out at 0.05 µM.
In the same order, the values of `CC(C)(C)OC(=O)N[C@@H](Cc1ccccc1)[C@H](O)CNC[C@@H](O)[C@H](Cc1ccc(OCc2ccccc2)cc1)NC(=O)OC(C)(C)C` are 0.3 µM, 2, 1.8 µM and 0.17 µM.
In the same order, the values of `CC(C)(C)OC(=O)N[C@@H](Cc1ccccc1)[C@H](O)CNC[C@@H](O)[C@H](Cc1ccc(OCC(=O)O)cc1)NC(=O)OC(C)(C)C` are 0.15 µM, 0.12, over 100 µM and 74 µM.
Taken in the same sequence, the figures for `CC(C)(C)OC(=O)N[C@@H](Cc1ccccc1)[C@H](O)CNC[C@@H](O)[C@H](Cc1ccc(OCCO)cc1)NC(=O)OC(C)(C)C` were 0.064 µM, 0.82, 56 µM and 0.06 µM.
`CC(C)(C)OC(=O)N[C@@H](Cc1ccccc1)[C@H](O)CNC[C@@H](O)[C@H](Cc1ccc(OCC(O)c2ccccn2)cc1)NC(=O)OC(C)(C)C` (stereo partly specified): the midpoint of inhibition in data set [1], the IC50, lay at 0.11 µM. For the same molecule, in data set [2], the “Log k'” value was determined as 0.81. In addition, the CC50 in data set [3] was determined as 58 µM. The EC50 in data set [4] amounted to 0.2 µM.
In data set [1], `CC(C)(C)OC(=O)N[C@@H](Cc1ccccc1)[C@H](O)CNC[C@@H](O)[C@H](Cc1ccc(O)cc1)NC(=O)OC(C)(C)C` had an IC50 of 0.1 µM. In addition, in data set [2], the “Log k'” value is on record as 0.79. The cytotoxic concentration (CC50) in data set [3] turned out to be 32 µM. The EC50 in data set [4] is 0.09 µM.
On to `CC(C)(C)OC(=O)N[C@@H](Cc1ccccc1)[C@H](O)CNC[C@@H](O)[C@H](Cc1ccccc1O)NC(=O)OC(C)(C)C`, for which, in data set [1], the concentration for half-maximal inhibition (IC50) came out at 0.3 µM. In addition, in data set [2], the “Log k'” value is 1.16. Also, in data set [3], the CC50 came out at 17 µM. The EC50 in data set [4] amounted to 1.2 µM.
Taken in the same sequence, the figures for `CC(C)(C)OC(=O)N[C@@H](Cc1ccccc1)[C@H](O)CNC[C@@H](O)[C@H](Cc1ccc(OCc2nc3ccccc3o2)cc1)NC(=O)OC(C)(C)C` were 0.32 µM, 1.69, 1.9 µM and 0.11 µM.
`CC(C)(C)OC(=O)N[C@@H](Cc1ccccc1)[C@H](O)CNC[C@@H](O)[C@H](Cc1ccc(CCC(=O)N2CCOCC2)cc1)NC(=O)OC(C)(C)C` displayed an IC50 in data set [1] of 0.085 µM. The “Log k'” value in data set [2] is 1.03. In data set [3], this molecule had a CC50 of 58 µM. In addition, the EC50 in data set [4] worked out at 0.21 µM.
In the same order, the values of `CC(C)(O)COc1ccc(C[C@H](NC(=O)OC(C)(C)C)[C@H](O)CNC[C@@H](O)[C@H](Cc2ccccc2)NC(=O)OC(C)(C)C)cc1` are 0.12 µM, 1.22, 49 µM and 0.09 µM.
The molecule `CC(C)(C)OC(=O)N[C@@H](Cc1ccccc1)[C@H](O)CNC[C@@H](O)[C@H](Cc1ccncc1)NC(=O)OC(C)(C)C` gave a concentration for half-maximal inhibition (IC50) in data set [1] of 0.4 µM. Further, the “Log k'” value in data set [2] was 0.8. Moreover, the CC50 in data set [3] came out at 67 µM. The EC50 in data set [4] was 0.54 µM.
`CC(C)(C)OC(=O)N[C@@H](Cc1ccccc1)[C@H](O)CNC[C@@H](O)[C@H](Cc1ccc(OCC(=O)N2CCOCC2)cc1)NC(=O)OC(C)(C)C` returned an IC50 in data set [1] of 0.1 µM. Further, in data set [2], the “Log k'” value is listed as 0.87. Moreover, the cytotoxic concentration (CC50) in data set [3] was over 100 µM. For the same molecule, the EC50 in data set [4] was found to be 0.1 µM.
In data set [1], `CC(C)(C)OC(=O)N[C@@H](Cc1ccccc1)[C@H](O)CNC[C@@H](O)[C@H](Cc1ccc(OCCCN2CCOCC2=O)cc1)NC(=O)OC(C)(C)C` returned an IC50 of 0.08 µM. The “Log k'” value in data set [2] stood at 0.92. The same molecule came in with a CC50 in data set [3] of 59 µM. Also, the EC50 in data set [4] was found to be 0.056 µM.
Taken in the same sequence, the figures for `CC(C)(C)OC(=O)N[C@@H](Cc1ccccc1)[C@H](O)CNC[C@@H](O)[C@H](Cc1ccc(OCCCc2nc3ccccc3o2)cc1)NC(=O)OC(C)(C)C` were 0.28 µM, 1.98, 5.9 µM and 1.5 µM.
Consider `CC(C)(C)OC(=O)N[C@@H](Cc1ccccc1)[C@H](O)CNC[C@@H](O)[C@H](Cc1ccccc1)NC(=O)OC(C)(C)C`, for which the “Log k'” value in data set [2] was 1.39. The Therapeutic index in data set [5] stood at 100. It took 8.5 µM to reach half-maximal cytotoxicity in data set [3] (CC50). This molecule also showed a half-life in data set [6] of 4 h. In addition, the EC50 in data set [7] was determined as 0.12 µM; in data set [4], 0.08 µM.
Take `CC(C)(C)OC(=O)N[C@@H](Cc1ccccc1)[C@H](O)CNC[C@@H](O)[C@H](Cc1ccc(OCCOc2cccnc2)cc1)NC(=O)OC(C)(C)C`: the IC50 in data set [1] is 0.06 µM. Further, the “Log k'” value in data set [2] was 1.25. Also, the midpoint of cytotoxicity in data set [3], the CC50, lay at 18 µM. The EC50 in data set [4] amounted to 0.04 µM.
For the molecule `CC(C)(C)OC(=O)N[C@@H](Cc1ccccc1)[C@H](O)CNC[C@@H](O)[C@H](Cc1ccc2ncccc2c1)NC(=O)OC(C)(C)C`, inhibition in data set [1] was half-maximal at 0.13 µM (IC50). Besides, in data set [3], the CC50 is 15 µM. In data set [4], the EC50 is 0.03 µM.
In data set [1], `COCCOc1ccc(C[C@H](NC(=O)OC(C)(C)C)[C@H](O)CNC[C@@H](O)[C@H](Cc2ccccc2)NC(=O)OC(C)(C)C)cc1` came in with an IC50 of 0.072 µM. Moreover, the “Log k'” value in data set [2] was determined as 1.19. This molecule yielded a 50% cytotoxic concentration (CC50) in data set [3] of 20 µM. Besides, the EC50 in data set [4] is 0.07 µM.
For the molecule `COCCCCOc1ccc(C[C@H](NC(=O)OC(C)(C)C)[C@H](O)CNC[C@@H](O)[C@H](Cc2ccccc2)NC(=O)OC(C)(C)C)cc1`, half-maximal inhibition in data set [1] (IC50) required 0.05 µM. In addition, the “Log k'” value in data set [2] is recorded as 1.6. Further, the half-maximal cytotoxic concentration (CC50) in data set [3] was 12 µM. In data set [4], the EC50 was under 0.03 µM.
